These molecules were tested against T1, human MDM2 (GST-hMDM2 1-188), interaction with biotinylated-p53 (1-83) (Homo sapiens, UniProt Q00987) (assay: improved HTRF assay (HTRF2 assay), inhibition of HDM2-p53 interaction). Details: 0.2 nM GST-hMDM2, 0.5 nM biotinylated-p53, 100 mM KF.
T1 construct: Amino acid residues 1-188 of human MDM2 were expressed; made in house; host or cells: Escherichia coli
Type: binding
Method in brief: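 GST-hMDM2 preincubated 20 min at RT with serially diluted compound, then biotinylated p53 (1-83, E. coli) added for 60 min. Detection with SA-XLent, anti-GST cryptate and KF, equilibrated >4 h; final DMSO 2%. TR-FRET read; % inhibition calculated relative to nutlin-3.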

T1 sequence (Q00987 1-188): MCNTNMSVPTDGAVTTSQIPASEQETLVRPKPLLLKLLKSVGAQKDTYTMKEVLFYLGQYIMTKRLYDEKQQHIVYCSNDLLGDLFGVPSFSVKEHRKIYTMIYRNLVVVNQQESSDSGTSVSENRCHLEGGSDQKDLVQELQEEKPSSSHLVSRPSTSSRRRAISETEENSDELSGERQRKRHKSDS

Row | Structure (SMILES) | IC50 [nM]
1 | CC[C@@H](CN(C)S(=O)(=O)C1CC1)N1C(=O)[C@H](Cc2nnn[nH]2)O[C@H](c2cccc(Cl)c2)[C@H]1c1ccc(Cl)cc1 (single isomer, unassigned) [Example 244, N-((S)-2-((2S,5R,6R)-2-((1H-tetrazol-5-yl)methyl)-6-(3-chlorophenyl)-5-(4-chlorophenyl)-3-oxomorpholino)butyl)-N-methylcyclopropanesulfonamide or N-((S)-2-((2R,5R,6R)-2-((1H-tetrazol-5-yl)methyl)-6-(3-chlorophenyl)-5-(4-chlorophenyl)-3-oxomorpholino)butyl)-N-methylcyclopropanesulfonamide] | 1
2 | C[C@@H](CS(=O)(=O)C(C)(C)C)N1C(=O)[C@@H](CC(N)=O)O[C@H](c2cccc(Cl)c2)[C@H]1c1ccc(Cl)cc1 (single isomer, unassigned) [Example 225, 2-((2R,5R,6R)-4-((S)-1-(tert-butylsulfonyl)propan-2-yl)-6-(3-chlorophenyl)-5-(4-chlorophenyl)-3-oxomorpholin-2-yl)acetamide or 2-((2S,5R,6R)-4-((S)-1-(tert-butylsulfonyl)propan-2-yl)-6-(3-chlorophenyl)-5-(4-chlorophenyl)-3-oxomorpholin-2-yl)acetamide] | 6
3 | CC[C@@H](CN(c1ccccn1)S(=O)(=O)C1CC1)N1C(=O)[C@H](CC(=O)O)O[C@H](c2cccc(Cl)c2)[C@H]1c1ccc(Cl)cc1 (single isomer, unassigned) [Example 181, 2-((2S,5R,6R)-6-(3-chlorophenyl)-5-(4-chlorophenyl)-3-oxo-4-((S)-1-(N-(pyridin-2-yl)cyclopropanesulfonamido)butan-2-yl)morpholin-2-yl)acetic acid or 2-((2R,5R,6R)-6-(3-chlorophenyl)-5-(4-chlorophenyl)-3-oxo-4-((S)-1-(N-(pyridin-2-yl)cyclopropanesulfonamido)butan-2-yl)morpholin-2-yl)acetic acid] | 1
4 | CC(C)(C)S(=O)(=O)C[C@H](C1CC1)N1C(=O)[C@@H](CC(=O)NCC(F)(F)F)O[C@H](c2cccc(Cl)c2)[C@H]1c1ccc(Cl)cc1 (single isomer, unassigned) [Example 346, 2-((2R,5R,6R)-4-((S)-2-(tert-Butylsulfonyl)-1-cyclopropylethyl)-6-(3-chlorophenyl)-5-(4-chlorophenyl)-3-oxomorpholin-2-yl)-N-(2,2,2-trifluoroethyl)acetamide or 2-((2S,5R,6R)-4-((S)-2-(tert-butylsulfonyl)-1-cyclopropylethyl)-6-(3-chlorophenyl)-5-(4-chlorophenyl)-3-oxomorpholin-2-yl)-N-(2,2,2-trifluoroethyl)acetamide] | 21
5 | CC(C)(C)S(=O)(=O)C[C@H](C1CCC1)N1C(=O)[C@@H](CC(=O)O)O[C@H](c2cccc(Cl)c2)[C@H]1c1ccc(Cl)cc1 (single isomer, unassigned) [Example 270, 2-((2R,5R,6R)-4-((S)-2-(tert-Butylsulfonyl)-1-cyclobutylethyl)-6-(3-chlorophenyl)-5-(4-chlorophenyl)-3-oxomorpholin-2-yl)acetic acid or 2-((2S,5R,6R)-4-((S)-2-(tert-butylsulfonyl)-1-cyclobutylethyl)-6-(3-chlorophenyl)-5-(4-chlorophenyl)-3-oxomorpholin-2-yl)acetic acid] | 2
6 | CC[C@@H](CS(=O)(=O)C(C)(C)C)N1C(=O)[C@@H](CC(=O)O)O[C@H](c2cccc(Cl)c2)[C@H]1c1ccc(Cl)s1 (single isomer, unassigned) [Example 218, 2-((2R,5S,6R)-4-((S)-1-(tert-butylsulfonyl)butan-2-yl)-6-(3-chlorophenyl)-5-(5-chlorothiophen-2-yl)-3-oxomorpholin-2-yl)acetic acid or 2-((2S,5S,6R)-4-((S)-1-(tert-butylsulfonyl)butan-2-yl)-6-(3-chlorophenyl)-5-(5-chlorothiophen-2-yl)-3-oxomorpholin-2-yl)acetic acid] | 1
